Test results published in patent US20040235798A1, “Compositions and methods for inhibiting prenyltransferases” (priority 2001, published 2004).

Assays:
[1] = target: T1, fungal N-myristoyltransferase (Candida albicans, UniProt P30418); details: cited from earlier work
T1 sequence (P30418 1-451): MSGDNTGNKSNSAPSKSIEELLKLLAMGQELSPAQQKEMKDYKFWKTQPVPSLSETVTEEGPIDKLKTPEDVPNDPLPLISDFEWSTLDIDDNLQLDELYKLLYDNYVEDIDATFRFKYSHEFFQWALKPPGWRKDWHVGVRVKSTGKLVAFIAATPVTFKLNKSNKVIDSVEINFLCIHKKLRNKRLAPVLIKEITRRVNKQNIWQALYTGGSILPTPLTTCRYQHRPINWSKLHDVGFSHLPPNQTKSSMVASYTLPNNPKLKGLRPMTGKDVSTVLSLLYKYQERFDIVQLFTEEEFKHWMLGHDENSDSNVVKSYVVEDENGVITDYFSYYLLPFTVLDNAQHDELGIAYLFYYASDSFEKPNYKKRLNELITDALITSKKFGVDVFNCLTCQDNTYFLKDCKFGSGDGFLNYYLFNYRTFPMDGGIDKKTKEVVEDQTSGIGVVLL

C. albicans GGPTase = C. albicans GGPTase (Candida albicans, UniProt Q8J224+Q9Y764); assay: Assay protocol for determining IC50 of fungal GGPTase inhibitors (3H-GGPP, FlashPlate); type: biochemical; details: 2 nM C. albicans GGPTase, 250 nM 3H-GGPP, 250 nM C. albicans Rho; read-out: CaGGTase
Protocol: (i) Assay Protocol for Determining IC50
Plate test compounds (10 μL per well) at predetermined concentration in 50% DMSO. For background control (blank) and reaction control (negative), add 10 μL of 200 μM GGPP and 10 μL 50% DMSO, respectively. Prepare assay buffer: 50 mM Tris, pH7.5, 20 mM KCL, 5 mM MgCl2, 5 μM ZnCl2, 0.5 mM Zw(3-14), 2 mM DTT and 0.1 mg/mL BSA.
Add 20 μL of C. albicans GGPTase and ^3H-GGPP in assay buffer to test compound. Preincubate enzyme and ^3H-GGPP with test compound for 15 minutes at room temperature. Add 20 μL C. albicans Rho in assay buffer. Incubate for 30 minutes at room temperature. Final assay conditions are 2 nM C. albicans GGPTase, 250 nM ^3H-GGPP and 250 nM C. albicans Rho.
Add 100 μL 15 mM GGPP, 50 mM Tris, pH 7.0 and 2% BSA to quench reaction. Transfer reaction to Nickel chelate FlashPlate. Allow his-tagged C. albcians Rho to capture onto plate. Rinse plate 1× with 200 μL 20 mM Tris, pH 7.0. Read in TOPCOUNT.

C. albicans [2] = assay: In vitro susceptibility testing of compounds in C. albicans (MIC); type: cell-based; details: concentration where no visible growth is observed, 35° C., read at 24 hr and 48 hr; for MIC: Candida albicans, read-out: C. alb MIC
Protocol: (ii) In vitro Susceptibility Testing of Compounds in C. albicans […] Innoculate strain C. albicans strain such as SC5314 into 20 mL of the appropriate medium and incubate at 35° C. with shaking (220 rpm) overnight 2: Count the C. albicans cells in a 1:10 dilution of the overnight culture using a haemocytometer. 3: Work out the dilution factor required to bring the cell number to 1×10^3 cells/100 μL (equivalent to 1×10^4 cells/mL) then add the required volume of the overnight culture to 25 mL media in a falcon tube. 4: Vortex the diluted cells and immediately pipette 100 μL of the cell suspension to each of the required rows of a 96 well plate using the multipipettor 5: Prepare each of the 100× stock solutions for the compounds to be tested in DMSO in the required concentration range in Eppendorf tubes. 6: The dilution series for each of the compounds may now be prepared in sequence: For each compound—start with highest dilution. Add 10 μL compound in DMSO to the 490 μL of appropriate media. Immediately vortex and add 100 μL to the appropriate row of cells on the 96-well plate. Repeat this process for the next and subsequent concentrations of this compound before starting on the dilution series for additional compounds. 7: When complete cover the 96-well plate with an acetate sheet and incubate at 35° C. Inspect visually and record results for both plates at 24 hr and 48 hr. The MIC corresponds to the concentration of compound where no visible growth is observed.

C. albicans [3] = assay: Determination of minimum fungicidal concentrations (MFC); type: cell-based; details: concentration where no cellular growth is observed on the plate after plating out MIC wells; for MFC: Candida albicans, read-out: C. alb MFC
Protocol: (iii) Determination of Minimum Fungicidal Concentrations (MFC) After the required time course for the MIC determination, the minimum fungicidal concentration can then be determined by plating out the entire contents of the well of the microtitre plates onto YPD or Sabourand plates. These plates are then incubated at 35° C. for 24-48 hrs. The MFC corresponds to the concentration of compound where no cellular growth is observed on the plate.

CAK1 = CAK1 (Candida albicans, UniProt A0A1D8PH53); assay: CAK1 inhibition, time-resolved fluorescence (FRET) kinase assay with biotin-his-cdk2 substrate; type: biochemical; details: 10 nM his-CAK1, 20 μM ATP, 30 min room temperature
Protocol: The following protocol was used for measuring CAK1 inhibition by test compounds:
A compound plate was pre-made with 20 μg/ml compound dissolved in 100% DMSO in each well of a 384-well plate (polypropylene, Coming cat # 29445-136), except for two control columns, wherein each well contained 100% DMSO.
A substrate plate was prepared by adding a pre-determined volume of substrate solution (925 nM biotin-his-cdk2 in reaction buffer) into each well of a 96-well deep-well plate (Beckman cat. 267006). To the control wells of the plate, 1/20 vol. of positive control and blank solutions were added according to the plate map. Positive control solutions are Olomoucine (MTX-277859) at 0.25, 0.75, 2.25, 6.75 mM, respectively, in DMSO, and blank solution is 50 mM EDTA in reaction buffer (50 mM Tris-HCl (pH 7.5), 50 mM NaCl, 0.1 mg/mL BSA, 100 μM MgCl2).
The reaction plate (384-well polystyrene black, Packard Opti plate, Cat.# 6005256) was loaded with a volume of 2.0 μL of samples from the compound plate and 8.0 μL of substrate solution from the substrate plate. 10 μl of enzyme solution (10 nM his-CAK1, 20 μM ATP in reaction buffer) was added to start the reaction. The plate was covered with a lid and incubated at room temperature for 30 min.
10 μl of FRET solution (45 nM streptavidin-APC*, 30 nM Europium-Ab, 3 mM EDTA in reaction buffer) was added to each of the wells of the reaction plate to stop the reaction. The time-resolved fluorescence was measured on a Wallac Victor fluorometer (excitation 340 nm, emission 665 nm, delay time 100 μs, window time 100 μs).

Chain of C. albicans GGPTase (Q9Y764 entry or part of it): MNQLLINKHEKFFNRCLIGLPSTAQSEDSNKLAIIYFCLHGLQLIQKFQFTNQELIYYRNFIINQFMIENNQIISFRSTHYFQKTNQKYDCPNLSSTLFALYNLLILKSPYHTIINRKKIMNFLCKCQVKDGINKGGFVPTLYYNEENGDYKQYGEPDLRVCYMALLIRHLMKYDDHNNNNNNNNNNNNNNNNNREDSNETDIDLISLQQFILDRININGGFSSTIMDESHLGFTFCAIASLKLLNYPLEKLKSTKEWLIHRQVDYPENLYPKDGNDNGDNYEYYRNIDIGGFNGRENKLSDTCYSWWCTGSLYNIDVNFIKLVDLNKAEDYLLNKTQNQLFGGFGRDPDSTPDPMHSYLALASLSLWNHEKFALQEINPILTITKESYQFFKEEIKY
Chain of C. albicans GGPTase (Q8J224 entry or part of it): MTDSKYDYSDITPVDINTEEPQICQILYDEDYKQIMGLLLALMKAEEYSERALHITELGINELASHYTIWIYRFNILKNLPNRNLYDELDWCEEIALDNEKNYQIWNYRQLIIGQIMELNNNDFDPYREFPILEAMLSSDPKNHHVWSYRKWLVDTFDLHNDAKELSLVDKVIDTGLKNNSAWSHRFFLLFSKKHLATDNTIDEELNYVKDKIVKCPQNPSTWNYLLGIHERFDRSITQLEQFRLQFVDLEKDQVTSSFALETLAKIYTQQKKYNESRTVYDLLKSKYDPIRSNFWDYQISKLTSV
Chain of CAK1 (A0A1D8PH53 entry or part of it): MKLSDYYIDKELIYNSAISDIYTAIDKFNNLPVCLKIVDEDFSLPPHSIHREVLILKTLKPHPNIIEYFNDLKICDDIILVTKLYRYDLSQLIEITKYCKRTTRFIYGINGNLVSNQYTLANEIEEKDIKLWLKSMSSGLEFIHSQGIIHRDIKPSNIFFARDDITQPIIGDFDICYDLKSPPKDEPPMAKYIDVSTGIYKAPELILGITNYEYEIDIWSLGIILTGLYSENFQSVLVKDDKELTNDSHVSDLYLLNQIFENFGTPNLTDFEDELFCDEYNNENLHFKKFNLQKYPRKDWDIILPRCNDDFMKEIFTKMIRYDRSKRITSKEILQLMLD

SMILES | IC50 (C. albicans GGPTase) | MIC (C. albicans [2]) | IC50 (CAK1) | MFC (C. albicans [3]) | also measured
CN(C)C(=O)c1ccc2nc(NC(=O)[C@H]3CC[C@@H](CN)CC3)sc2c1 |  |  |  |  | inhibitor of fungal N-myristoyltransferase [1]: potent inhibitor
Cn1cncc1CN1CCN(C(=O)N(Cc2cccc(Cl)c2)Cc2cccc(Cl)c2)CC1C(=O)NC[C@H]1CO[C@](Cn2ccnc2)(c2ccc(Cl)cc2Cl)O1 (stereo partly shown) [Compound 1] | < 100 nM | < 10 µg/mL |  | < 10 µg/mL | 
C[C@H](NC(=O)C1CN(C(=O)N(Cc2cccc(Cl)c2)Cc2cccc(Cl)c2)CCN1Cc1cncn1C)[C@](O)(Cn1cncn1)c1ccc(F)cc1F (stereo partly shown) [Compound 2] | < 100 nM | < 10 µg/mL |  | < 10 µg/mL | 
Cn1cncc1CN(CC(=O)NC[C@@H]1CO[C@@](Cn2ccnc2)(c2ccc(Cl)cc2Cl)O1)C1CCN(C(=O)N(Cc2cccc(Cl)c2)Cc2cccc(Cl)c2)CC1 [Compound 4] | < 100 nM | < 10 µg/mL |  | < 10 µg/mL | 
Cn1cncc1CN(C[C@@H]1CO[C@@](Cn2ccnc2)(c2ccc(Cl)cc2Cl)O1)C1CCN(C(=O)N(Cc2cccc(Cl)c2)Cc2cccc(Cl)c2)CC1 [Compound 5] | < 100 nM | < 10 µg/mL |  | < 10 µg/mL | 
Cn1cncc1CN1CCN(C(=O)N(Cc2cccc(Cl)c2)Cc2cccc(Cl)c2)C[C@@H]1CNC1CO[C@@](Cn2cncn2)(c2ccc(Cl)cc2Cl)O1 (stereo partly shown) [Compound 8] | < 100 nM | < 10 µg/mL |  | < 10 µg/mL | 
Cn1cncc1CN1CCN(C(=O)N(Cc2cccc(Cl)c2)Cc2cccc(Cl)c2)C[C@@H]1CNC1CO[C@@](Cn2cncn2)(c2ccc(Cl)cc2Cl)O1 (stereo partly shown) [Compound 9] |  |  |  |  | C. alb MIC (C. albicans [2]): <10 µg/mL; C. alb MFC (C. albicans [3]): <10 µg/mL
Cn1cncc1CN1CCN(C(=O)N(Cc2cccc(Cl)c2)Cc2cccc(Cl)c2)C[C@@H]1C(=O)NC[C@@H]1CO[C@@](Cn2cncn2)(c2ccc(Cl)cc2Cl)O1 [Compound 10] | < 100 nM | < 10 µg/mL |  | < 10 µg/mL | 
Cn1cncc1CN1CCN(C(=O)N(Cc2cccc(Cl)c2)Cc2cccc(Cl)c2)C[C@@H]1C(=O)NC[C@H]1CO[C@](Cn2ccnc2)(c2ccc(Cl)cc2Cl)O1 [Compound 11] | < 100 nM | < 10 µg/mL |  | < 10 µg/mL | 
Cn1cncc1CN1CCN(C(=O)N(Cc2cccc(Cl)c2)Cc2cccc(Cl)c2)C[C@@H]1C(=O)NC[C@H]1CO[C@](Cn2ccnc2)(c2ccc(Cl)cc2Cl)O1 [Compound 12] |  |  |  |  | C. alb MIC (C. albicans [2]): <10 µg/mL; C. alb MFC (C. albicans [3]): <10 µg/mL

The next lines start with results.

IC50 (C. albicans GGPTase) | MIC (C. albicans [2]) | IC50 (CAK1) | SMILES | MFC (C. albicans [3]) | also measured
< 100 nM | < 10 µg/mL |  | Cn1cncc1CN1CCN(C(=O)N(Cc2cccc(Cl)c2)Cc2cccc(Cl)c2)C[C@@H]1C(=O)NC[C@@H]1CO[C@@](Cn2ccnc2)(c2ccc(Cl)cc2Cl)O1 [Compound 13] | < 10 µg/mL | 
< 100 nM | < 10 µg/mL |  | Cn1cncc1CN1CCN(C(=O)N(Cc2cccc(Cl)c2)Cc2cccc(Cl)c2)C[C@H]1C(=O)NC[C@@H]1CO[C@@](Cn2ccnc2)(c2ccc(Cl)cc2Cl)O1 [Compound 14] | < 10 µg/mL | 
< 100 nM | < 10 µg/mL |  | C[C@@H](c1nc([C@H]2CN(C(=O)N(Cc3cccc(Cl)c3)Cc3cccc(Cl)c3)CCN2Cc2cncn2C)cs1)[C@@](O)(c1ccc(F)cc1F)n1cncn1 [Compound 15] | < 10 µg/mL | 
< 100 nM | < 10 µg/mL |  | C[C@@H](c1nc(CN(Cc2cncn2C)[C@H]2CCN(C(=O)N(Cc3cccc(Cl)c3)Cc3cccc(Cl)c3)C2)cs1)[C@@](O)(c1ccc(F)cc1F)n1cncn1 [Compound 16] | < 10 µg/mL | 
 |  | < 50000 nM | Cc1onc(-c2c(Cl)cccc2Cl)c1C(=O)Nc1cccc(-c2ncon2)c1 [Compound 101] |  | 
 |  | < 10000 nM | O=C(CSc1ccccn1)c1ccc(OCc2ccc([N+](=O)O)cc2)cc1 [Compound 102] |  | 
 |  | < 50000 nM | CCOC(=O)c1c(NC(=O)c2c(OC)cccc2OC)sc(C)c1C [Compound 103] |  | 
 |  | > 50000 nM | CCOC(=O)c1c(NC(=O)c2c(OC)cccc2OC)sc2c1CCC(C)C2 (stereo not shown) [Compound 104] |  | 
 |  | < 50000 nM | O=C1CCc2cc(C(=O)CSc3ccc(Cl)cc3Cl)ccc2N1 [Compound 105] |  | 
 |  | < 50000 nM | CCOC(=O)C1=C(C)N(Cc2ccccc2)C(=O)NC1c1ccc(OC(F)(F)F)cc1 (stereo not shown) [Compound 106] |  | 
 |  | < 10000 nM | O=C(c1ccccc1OCC1COC(Cn2ccnc2)(c2ccc(Cl)cc2Cl)O1)N(Cc1ccccc1)Cc1ccccc1 (stereo not shown) [Compound 107] |  | 
 |  | < 50000 nM | O=C(c1cc(C(O)(Cn2ccnc2)c2ccccc2)ccc1-c1ccccc1)N(Cc1ccccc1)Cc1ccccc1 (stereo not shown) [Compound 108] |  | 
